From patent publication US7867980B2, “Lincosamide derivatives and antimicrobial agents comprising the same as active ingredient” (Meiji Seika Kaisha, Ltd., priority 2007, dated 2011)
Values after ≈ are worked out from the molar mass of the structure shown.

Legend:
Assay in all cases: Antimicrobial activity, minimum growth inhibitory concentration (MIC), agar dilution
Assay type in all cases: cell-based
S. pneumoniae TH-662 = conditions: inoculum about 10^6 CFU/ml; for minimum growth inhibitory concentration (MIC): Sensitivity disk agar-N+5% horse blood
Procedure: (§1) For representative compounds among lincomycin derivatives according to the present invention, the minimum growth inhibitory concentration (MIC, μg/ml) against various pneumococci was measured according to the method described in CHEMOTHERAPY, vol. […] Sensitivity disk agar-N+5% horse blood was used as the medium for the measurement. The amount of bacteria inoculated was about 10^6 CFU/ml.

S. pneumoniae 225 = conditions: Sensitivity disk agar-N+5% horse blood, inoculum about 10^6 CFU/ml
Procedure: as §1

S. pneumoniae 1820 = conditions: Sensitivity disk agar-N+5% horse blood, inoculum about 10^6 CFU/ml
Procedure: as §1

S. pneumoniae DP1 TypeI = conditions: Sensitivity disk agar-N+5% horse blood, inoculum about 10^6 CFU/ml
Procedure: as §1

S. pneumoniae 1700 = conditions: Sensitivity disk agar-N+5% horse blood, inoculum about 10^6 CFU/ml
Procedure: as §1

S. pneumoniae 1913 = conditions: Sensitivity disk agar-N+5% horse blood, inoculum about 10^6 CFU/ml
Procedure: as §1

S. pneumoniae PRC-206 = conditions: inoculum about 10^6 CFU/ml; for minimum growth inhibitory concentration (MIC): Sensitivity disk agar-N+5% horse blood
Procedure: as §1

S. pneumoniae IP692 = conditions: Sensitivity disk agar-N+5% horse blood, inoculum about 10^6 CFU/ml
Procedure: as §1

S. pneumoniae PRC-53 = conditions: inoculum about 10^6 CFU/ml; for minimum growth inhibitory concentration (MIC): Sensitivity disk agar-N+5% horse blood
Procedure: as §1

| SMILES | minimum growth inhibitory concentration (MIC) (S. pneumoniae TH-662) [µg/mL] | minimum growth inhibitory concentration (MIC) (S. pneumoniae 225) [µg/mL] | minimum growth inhibitory concentration (MIC) (S. pneumoniae 1820) [µg/mL] | minimum growth inhibitory concentration (MIC) (S. pneumoniae DP1 TypeI) | minimum growth inhibitory concentration (MIC) (S. pneumoniae 1700) [µg/mL] | minimum growth inhibitory concentration (MIC) (S. pneumoniae 1913) | minimum growth inhibitory concentration (MIC) (S. pneumoniae PRC-206) [µg/mL] | minimum growth inhibitory concentration (MIC) (S. pneumoniae IP692) | minimum growth inhibitory concentration (MIC) (S. pneumoniae PRC-53) | MIC (S. pneumoniae TH-662; Streptococcus pneumoniae, TH662, Sensitivity disk agar-N+5% horse blood) [µg/mL] | MIC (S. pneumoniae 225; Streptococcus pneumoniae) [µg/mL] | MIC (S. pneumoniae 1820; Streptococcus pneumoniae) [µg/mL] | MIC (S. pneumoniae DP1 TypeI; Streptococcus pneumoniae, DP1TYPEI) [µg/mL] | MIC (S. pneumoniae 1700; Streptococcus pneumoniae) [µg/mL] | MIC (S. pneumoniae 1913; Streptococcus pneumoniae) [µg/mL] | MIC (S. pneumoniae PRC-206; Streptococcus pneumoniae, PRC206, Sensitivity disk agar-N+5% horse blood) [µg/mL] | MIC (S. pneumoniae IP692; Streptococcus pneumoniae) [µg/mL] | MIC (S. pneumoniae PRC-53; Streptococcus pneumoniae, PRC53, Sensitivity disk agar-N+5% horse blood) [ng/mL] |
| --- | --- | --- | --- | --- | --- | --- | --- | --- | --- | --- | --- | --- | --- | --- | --- | --- | --- | --- |
| CCC[C@@H]1C[C@@H](C(=O)N[C@@H]([C@H]2O[C@H](SC)[C@H](O)[C@@H](O)[C@H]2O)[C@H](C)Sc2ccc(-c3cncnc3)c(F)c2)N(C)C1 [Compound 3, 7-Deoxy-7-epi-7-(3-fluoro-4-(pyrimidin-5-yl)phenylthio)lincomycin] | 0.25 | 8 | 2 | 0.015 µg/mL | 2 | ≦0.008 μg/ml | 2 | 0.03 µg/mL | ≦0.008 μg/ml | – | – | – | – | – | – | – | – | – |
| CCCC1CC(C(=O)NC(C(C)Sc2ccc(-c3nc(C(=O)N(C)C)cs3)cc2)C2OC(SC)C(O)C(O)C2O)N(C)C1 (stereo not drawn) [Compound 17, 7-Deoxy-7-(4-(4-(dimethylcarbamoyl)-thiazol-2-yl)phenylthio)-7-epilincomycin] | 2 | 32 | 4 | 0.03 µg/mL | 2 | 0.03 µg/mL | 4 | 0.03 µg/mL | 0.015 µg/mL | – | – | – | – | – | – | – | – | – |
| CCC[C@@H]1CCN[C@H](C(=O)N[C@@H]([C@H]2O[C@H](SC)[C@H](O)[C@@H](O)[C@H]2O)[C@H](C)Sc2ccc(-c3cncnc3)cc2)C1 [Compound 59, Methyl 7-deoxy-7-epi-6-N-((2S,4R)-4-propyl)pipecoloyl-7-(4-(pyrimidin-5-yl)phenylthio)-1-thio-α-lincosamide] | 0.13 | 1 | 0.25 | ≦0.008 μg/ml | 0.13 | 0.015 µg/mL | 0.25 | ≦0.008 μg/ml | ≦0.008 μg/ml | – | – | – | – | – | – | – | – | – |
| CCC[C@@H]1CCN(C)[C@H](C(=O)N[C@@H](C2OC(SC)C(O)C(O)C2O)[C@H](C)Sc2ccc(-c3cncnc3)cc2)C1 (stereo partly drawn) [Compound 65] | – | – | – | – | – | – | – | – | – | 0.5 (≈ 0.846 µM) | 4 (≈ 6.77 µM) | 2 (≈ 3.39 µM) | 0.015 (≈ 0.0254 µM) | 2 (≈ 3.39 µM) | 0.015 (≈ 0.0254 µM) | 2 (≈ 3.39 µM) | 0.015 (≈ 0.0254 µM) | ≤ 8 |
| CS[C@H]1O[C@H]([C@H](NC(=O)[C@@H]2C[C@H](CC3CC3)CCN2)[C@H](C)Sc2ccc(C3C=CCN(C)C3)nc2)[C@H](O)[C@H](O)[C@H]1O (stereo partly drawn) [Compound 93, Methyl 6-N-((2S,4R)-4-cyclopropylmethyl)-pipecoloyl-7-deoxy-7-epi-7-(6-(1-methyl-1,2,3,6-tetrahydropyridin-3-yl)pyridin-3-ylthio)-1-thio-α-lincosamide] | 0.5 | 1 | 1 | 0.06 µg/mL | 0.5 | 0.13 µg/mL | 1 | 0.13 µg/mL | 0.06 µg/mL | – | – | – | – | – | – | – | – | – |
